# Values of other authors as cited in patent publication US20240252489A1, “REPEATED ADMINISTRATION OF DIHYDROERGOTAMINE FOR TREATMENT OF FREQUENT MIGRAINE HEADACHES” (Woodward Specialty LLC, priority 2020, published 2024).
# Test system: patients with frequent migraine headaches
# Settings: 15 min after administration; reported in the literature
compound,measurement,value
N[C@@H]1c2cccnc2[C@H](OC(=O)N2CCC(n3c(=O)[nH]c4ncccc43)CC2)CC[C@H]1c1cccc(F)c1F [Rimegepant],subjects having pain relief,8%
